Results taken from ChEMBL document CHEMBL5653631, “A Potent and Selective ULK1 Inhibitor Suppresses Autophagy and Sensitizes Cancer Cells to Nutrient Stress” (iScience, 2018).
One block for each compound: values may come before it.

How the values were obtained:
[1] = target: T1, NUAK family SNF1-like kinase 2 (Homo sapiens) (UniProt Q9H093); experiment: Inhibition of human recombinant NuaK2 at 500 nM in presence of ATP by radiometric assay relative to control
T1 sequence (whole entry): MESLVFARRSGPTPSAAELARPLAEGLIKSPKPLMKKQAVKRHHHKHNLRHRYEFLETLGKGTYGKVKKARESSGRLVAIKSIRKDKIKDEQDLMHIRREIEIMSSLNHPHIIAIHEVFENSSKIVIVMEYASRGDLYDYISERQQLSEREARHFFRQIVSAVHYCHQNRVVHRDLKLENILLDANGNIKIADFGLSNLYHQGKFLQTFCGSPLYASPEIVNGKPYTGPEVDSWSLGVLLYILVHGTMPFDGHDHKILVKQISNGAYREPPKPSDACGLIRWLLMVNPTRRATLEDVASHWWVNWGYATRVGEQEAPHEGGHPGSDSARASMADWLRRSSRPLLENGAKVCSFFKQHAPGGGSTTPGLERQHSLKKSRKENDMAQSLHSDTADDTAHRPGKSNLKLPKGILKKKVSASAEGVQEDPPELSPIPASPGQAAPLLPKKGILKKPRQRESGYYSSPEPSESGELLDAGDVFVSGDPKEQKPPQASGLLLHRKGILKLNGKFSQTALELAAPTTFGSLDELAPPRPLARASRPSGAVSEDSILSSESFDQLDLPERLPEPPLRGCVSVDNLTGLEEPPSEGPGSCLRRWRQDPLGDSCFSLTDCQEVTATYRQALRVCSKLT

[2] = target: T2, Tyrosine-protein kinase Mer (Homo sapiens) (UniProt Q12866); experiment: Inhibition of human recombinant MER at 40 nM related to control ULK1
T2 sequence (whole entry): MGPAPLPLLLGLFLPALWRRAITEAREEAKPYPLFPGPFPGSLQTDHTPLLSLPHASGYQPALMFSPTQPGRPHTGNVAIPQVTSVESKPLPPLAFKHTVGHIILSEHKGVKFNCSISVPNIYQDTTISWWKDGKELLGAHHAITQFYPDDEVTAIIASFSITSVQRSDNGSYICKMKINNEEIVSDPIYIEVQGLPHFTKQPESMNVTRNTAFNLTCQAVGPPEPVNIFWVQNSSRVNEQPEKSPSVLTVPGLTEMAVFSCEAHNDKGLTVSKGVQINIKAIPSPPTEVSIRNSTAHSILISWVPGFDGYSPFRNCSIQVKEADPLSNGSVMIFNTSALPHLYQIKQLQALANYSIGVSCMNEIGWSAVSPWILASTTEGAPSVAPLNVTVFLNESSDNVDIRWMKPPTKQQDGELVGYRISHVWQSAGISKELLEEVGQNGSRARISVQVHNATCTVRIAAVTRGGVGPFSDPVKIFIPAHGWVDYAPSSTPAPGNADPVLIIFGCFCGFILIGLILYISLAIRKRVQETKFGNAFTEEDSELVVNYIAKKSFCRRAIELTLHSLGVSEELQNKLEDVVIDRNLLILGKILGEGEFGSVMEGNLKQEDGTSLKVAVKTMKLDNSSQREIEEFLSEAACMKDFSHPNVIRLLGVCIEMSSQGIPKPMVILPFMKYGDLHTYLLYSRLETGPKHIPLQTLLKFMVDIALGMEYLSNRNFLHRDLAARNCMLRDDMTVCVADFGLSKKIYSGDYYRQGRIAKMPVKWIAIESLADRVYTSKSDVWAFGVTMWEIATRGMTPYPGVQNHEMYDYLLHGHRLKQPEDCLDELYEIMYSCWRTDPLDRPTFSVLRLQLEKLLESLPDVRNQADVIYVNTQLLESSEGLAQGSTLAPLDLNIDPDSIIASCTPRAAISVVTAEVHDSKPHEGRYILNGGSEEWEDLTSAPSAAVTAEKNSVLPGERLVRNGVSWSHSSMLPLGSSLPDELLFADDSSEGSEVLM

[3] = target: Ephrin type-A receptor 4 (Homo sapiens) (UniProt P54764); experiment: Inhibition of human recombinant EphA4 at 40 nM related to control ULK1
Homo sapiens = species: Homo sapiens; experiment: Inhibition of human recombinant p70S6K at 15 nM in presence of ATP by radiometric assay relative to control
[4] = target: T3, SNF-related serine/threonine-protein kinase (Homo sapiens) (UniProt Q9NRH2); experiment: Inhibition of human recombinant SNRK at 15 nM related to control ULK1
T3 sequence (whole entry): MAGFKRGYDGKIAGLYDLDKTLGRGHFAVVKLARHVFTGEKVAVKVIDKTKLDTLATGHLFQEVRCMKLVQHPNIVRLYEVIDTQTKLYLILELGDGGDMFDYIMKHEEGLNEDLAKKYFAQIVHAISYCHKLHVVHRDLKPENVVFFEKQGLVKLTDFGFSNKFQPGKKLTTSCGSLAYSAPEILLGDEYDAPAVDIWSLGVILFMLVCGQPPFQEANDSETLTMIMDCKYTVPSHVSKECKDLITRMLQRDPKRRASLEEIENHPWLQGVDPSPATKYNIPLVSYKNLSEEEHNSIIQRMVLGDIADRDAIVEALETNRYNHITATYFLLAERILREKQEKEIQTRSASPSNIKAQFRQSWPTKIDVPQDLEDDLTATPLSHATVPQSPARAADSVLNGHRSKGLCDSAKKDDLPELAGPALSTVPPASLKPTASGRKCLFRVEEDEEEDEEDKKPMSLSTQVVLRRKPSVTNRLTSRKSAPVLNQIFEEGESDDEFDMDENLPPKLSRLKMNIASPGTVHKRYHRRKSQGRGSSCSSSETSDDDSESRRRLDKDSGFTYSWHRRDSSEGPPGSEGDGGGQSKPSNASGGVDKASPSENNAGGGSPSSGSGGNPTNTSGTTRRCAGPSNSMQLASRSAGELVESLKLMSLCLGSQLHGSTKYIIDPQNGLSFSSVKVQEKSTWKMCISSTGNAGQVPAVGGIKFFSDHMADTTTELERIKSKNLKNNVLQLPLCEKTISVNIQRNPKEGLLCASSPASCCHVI

[5] = target: Wee1-like protein kinase (Homo sapiens) (UniProt P30291); experiment: Inhibition of human recombinant Wee1 at 15 nM in presence of ATP by radiometric assay relative to control
[6] = target: Cyclin-dependent kinase 18 (Homo sapiens) (UniProt Q07002); experiment: Inhibition of human recombinant PCTAIRE3 at 15 nM in presence of ATP by radiometric assay relative to control
[7] = target: Insulin-like growth factor 1 receptor (Homo sapiens) (UniProt P08069); experiment: Inhibition of human recombinant IGF1R at 15 nM in presence of ATP by radiometric assay relative to control
Chain of Insulin-like growth factor 1 receptor (Homo sapiens) (P08069 31-736 limits assumed): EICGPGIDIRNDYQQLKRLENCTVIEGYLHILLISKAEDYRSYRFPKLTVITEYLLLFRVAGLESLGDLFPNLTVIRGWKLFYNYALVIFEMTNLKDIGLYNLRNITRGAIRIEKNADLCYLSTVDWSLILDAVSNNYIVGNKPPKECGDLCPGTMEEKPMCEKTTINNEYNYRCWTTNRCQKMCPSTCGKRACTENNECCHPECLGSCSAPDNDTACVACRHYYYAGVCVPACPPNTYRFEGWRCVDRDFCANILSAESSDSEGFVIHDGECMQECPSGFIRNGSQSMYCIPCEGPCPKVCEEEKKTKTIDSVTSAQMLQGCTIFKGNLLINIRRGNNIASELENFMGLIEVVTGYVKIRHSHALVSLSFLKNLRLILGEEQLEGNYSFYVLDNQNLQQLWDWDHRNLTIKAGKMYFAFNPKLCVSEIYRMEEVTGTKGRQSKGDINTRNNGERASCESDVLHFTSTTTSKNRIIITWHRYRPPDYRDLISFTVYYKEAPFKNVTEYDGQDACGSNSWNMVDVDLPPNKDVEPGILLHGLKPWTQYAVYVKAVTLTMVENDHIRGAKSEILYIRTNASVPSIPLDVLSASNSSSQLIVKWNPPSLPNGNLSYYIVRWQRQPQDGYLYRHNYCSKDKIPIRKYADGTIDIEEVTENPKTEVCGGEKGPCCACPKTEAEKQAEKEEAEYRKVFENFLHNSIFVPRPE
Chain of Insulin-like growth factor 1 receptor (Homo sapiens) (P08069 741-1367 limits assumed): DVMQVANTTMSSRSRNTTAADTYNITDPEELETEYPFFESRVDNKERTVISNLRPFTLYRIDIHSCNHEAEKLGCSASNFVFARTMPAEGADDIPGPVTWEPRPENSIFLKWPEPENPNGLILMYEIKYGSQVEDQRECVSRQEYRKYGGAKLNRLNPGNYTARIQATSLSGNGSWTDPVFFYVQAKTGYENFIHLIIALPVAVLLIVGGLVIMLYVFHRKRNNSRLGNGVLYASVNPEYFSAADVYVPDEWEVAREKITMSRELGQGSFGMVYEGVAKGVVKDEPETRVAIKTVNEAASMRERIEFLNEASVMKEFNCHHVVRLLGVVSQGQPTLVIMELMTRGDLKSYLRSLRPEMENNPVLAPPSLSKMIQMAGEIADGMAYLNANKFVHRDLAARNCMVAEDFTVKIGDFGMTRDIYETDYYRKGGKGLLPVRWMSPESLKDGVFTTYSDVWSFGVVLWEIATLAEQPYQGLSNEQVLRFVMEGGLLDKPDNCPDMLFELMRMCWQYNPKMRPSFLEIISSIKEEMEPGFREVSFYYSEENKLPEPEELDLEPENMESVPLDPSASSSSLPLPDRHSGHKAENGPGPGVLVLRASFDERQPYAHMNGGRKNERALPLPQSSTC

Chain of Wee1-like protein kinase (Homo sapiens) (P30291 whole entry, looked up): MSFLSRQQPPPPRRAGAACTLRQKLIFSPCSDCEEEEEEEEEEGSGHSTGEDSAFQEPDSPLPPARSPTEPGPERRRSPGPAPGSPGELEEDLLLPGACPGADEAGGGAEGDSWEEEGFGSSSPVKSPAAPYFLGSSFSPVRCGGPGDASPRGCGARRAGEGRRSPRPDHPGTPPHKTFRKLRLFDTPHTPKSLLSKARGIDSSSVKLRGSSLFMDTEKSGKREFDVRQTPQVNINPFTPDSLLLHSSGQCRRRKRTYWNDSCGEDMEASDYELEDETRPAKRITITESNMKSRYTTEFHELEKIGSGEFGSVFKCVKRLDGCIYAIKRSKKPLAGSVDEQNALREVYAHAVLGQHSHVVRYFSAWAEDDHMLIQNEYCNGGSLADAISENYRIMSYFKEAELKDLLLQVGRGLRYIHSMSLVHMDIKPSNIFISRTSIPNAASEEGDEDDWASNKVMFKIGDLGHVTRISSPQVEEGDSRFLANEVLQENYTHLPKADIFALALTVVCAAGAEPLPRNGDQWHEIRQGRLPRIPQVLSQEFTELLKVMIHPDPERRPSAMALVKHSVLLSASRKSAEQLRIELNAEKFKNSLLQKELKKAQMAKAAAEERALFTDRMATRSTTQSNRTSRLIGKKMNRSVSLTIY
Chain of Cyclin-dependent kinase 18 (Homo sapiens) (Q07002 whole entry): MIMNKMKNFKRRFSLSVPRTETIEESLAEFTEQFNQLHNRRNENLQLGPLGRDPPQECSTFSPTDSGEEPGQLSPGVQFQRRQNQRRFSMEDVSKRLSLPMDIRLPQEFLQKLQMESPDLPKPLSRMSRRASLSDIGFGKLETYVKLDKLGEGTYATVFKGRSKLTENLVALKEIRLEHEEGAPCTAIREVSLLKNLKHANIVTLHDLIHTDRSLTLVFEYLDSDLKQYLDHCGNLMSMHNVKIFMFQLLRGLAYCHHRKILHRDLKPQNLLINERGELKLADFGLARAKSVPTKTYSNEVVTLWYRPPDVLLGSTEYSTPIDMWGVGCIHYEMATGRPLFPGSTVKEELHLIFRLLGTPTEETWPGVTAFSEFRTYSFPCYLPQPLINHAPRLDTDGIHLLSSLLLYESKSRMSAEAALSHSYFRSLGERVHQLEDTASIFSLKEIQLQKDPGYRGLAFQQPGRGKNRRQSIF
Chain of Ephrin type-A receptor 4 (Homo sapiens) (P54764 whole entry): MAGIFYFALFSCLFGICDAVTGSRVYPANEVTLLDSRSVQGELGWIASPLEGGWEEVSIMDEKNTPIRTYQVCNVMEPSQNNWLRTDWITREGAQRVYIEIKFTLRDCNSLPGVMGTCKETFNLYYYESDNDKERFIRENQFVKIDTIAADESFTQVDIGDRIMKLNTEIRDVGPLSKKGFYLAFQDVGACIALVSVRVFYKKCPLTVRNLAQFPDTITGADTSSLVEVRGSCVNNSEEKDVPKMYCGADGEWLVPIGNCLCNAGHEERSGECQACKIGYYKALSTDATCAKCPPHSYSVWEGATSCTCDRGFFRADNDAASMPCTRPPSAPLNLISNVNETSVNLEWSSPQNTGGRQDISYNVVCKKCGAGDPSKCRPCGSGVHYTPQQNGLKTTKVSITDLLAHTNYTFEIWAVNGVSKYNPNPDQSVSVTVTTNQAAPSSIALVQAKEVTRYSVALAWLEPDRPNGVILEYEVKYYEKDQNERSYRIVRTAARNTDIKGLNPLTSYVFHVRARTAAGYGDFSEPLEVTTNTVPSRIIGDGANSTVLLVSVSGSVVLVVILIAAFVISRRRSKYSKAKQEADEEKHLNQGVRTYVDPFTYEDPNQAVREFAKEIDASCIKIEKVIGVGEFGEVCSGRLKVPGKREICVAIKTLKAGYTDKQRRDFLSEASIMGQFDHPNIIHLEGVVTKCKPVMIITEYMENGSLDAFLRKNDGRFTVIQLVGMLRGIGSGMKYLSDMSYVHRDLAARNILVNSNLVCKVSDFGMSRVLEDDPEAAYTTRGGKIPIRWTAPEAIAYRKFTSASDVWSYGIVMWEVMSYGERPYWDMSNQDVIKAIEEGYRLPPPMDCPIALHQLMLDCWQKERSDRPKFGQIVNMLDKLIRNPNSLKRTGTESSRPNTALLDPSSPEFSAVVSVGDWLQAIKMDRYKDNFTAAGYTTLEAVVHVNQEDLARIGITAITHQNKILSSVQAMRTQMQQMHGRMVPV

inhibition [1]: 64%
Compound: CNC(=O)c1ccccc1Oc1nc(Nc2cc(OC)c(OC)c(OC)c2)ncc1Br

fold change (FC) [2]: 0.01
fold change (FC) [3]: 0
Compound: O=C(N[C@@H](C1CC1)C(F)(F)F)c1cc(-c2cnn3cc(-c4ccc(F)cc4)cnc23)cs1

inhibition (Homo sapiens): 17%
fold change (FC) [4]: 0.09
inhibition [5]: 15%
inhibition [6]: 67%
inhibition [7]: 0%
Compound: CC(C)[C@H](NC(=O)c1cc(-c2cnn3cc(-c4ccc(OCCN5CCCCC5)cc4)cnc23)cs1)C(F)(F)F
